Source: paper PMC4057235, “Development and Evaluation of Small Peptidomimetic Ligands to Protease-Activated Receptor-2 (PAR2) through the Use of Lipid Tethering” (PLoS ONE, 2014)
Like-named read-outs stand apart in the source and are kept apart here. Square brackets hold non-standard residues; d marks the D form. Peptide text beside a SMILES is read from it. * marks the point of attachment. 4Thiazolecarbonyl(2-NH2) = Nc1nc(C(=O)*)cs1; Cha = N[C@@H](CC1CCCCC1)C(=O)O

How the values were obtained:
[1] = target: T1, PAR2 (Homo sapiens, UniProt P55085); assay: xCELLigence RTCA in vitro physiological response, 16HBE14o- cells; format: cell-based; conditions: for EC50: peak Normalized Cell Index within 4 hr
T1 construct: 16HBE14o- cells on E-plates in growth medium; endogenous in cells; host or cells: 16HBE14o- cells
T1 sequence (P55085 26-397): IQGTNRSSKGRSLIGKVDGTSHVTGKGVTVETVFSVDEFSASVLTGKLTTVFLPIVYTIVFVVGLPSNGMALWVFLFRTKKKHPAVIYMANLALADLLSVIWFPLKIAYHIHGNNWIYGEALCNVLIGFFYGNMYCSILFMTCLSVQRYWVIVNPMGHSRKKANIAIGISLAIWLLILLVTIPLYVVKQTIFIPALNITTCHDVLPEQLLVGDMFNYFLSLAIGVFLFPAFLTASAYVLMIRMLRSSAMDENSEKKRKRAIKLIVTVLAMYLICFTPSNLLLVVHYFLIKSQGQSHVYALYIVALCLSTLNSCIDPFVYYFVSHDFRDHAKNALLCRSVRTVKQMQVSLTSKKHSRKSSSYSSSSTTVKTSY
From the text: 16HBE14o- cells, a SV40 transformed human bronchial epithelial cell line, were obtained through the California Pacific Medical Center Research Institute (San Francisco, CA, USA). Cells were maintained and expanded as previously described. Briefly, cell lines were expanded in tissue culture flasks prior to transfer to 96 well E-plates (Roche) for experiments. Flasks and 96 well E-plates were coated initially with a matrix coating solution (88% Lechner and LaVeck basal medium, 10% bovine serum albumin (BSA; from 1 mg/ml stock), 1% bovine collagen type I (from 2.9 mg/ml stock), and 1% human fibronectin (from 1 mg/ml stock solution) and incubated for 2 hr at 37°C, after which the coating solution was removed and allowed to dry for at least 1 hr. 16HBE14o- cells were plated at a concentration of 1×10^5 cells/cm^2 and grown in Eagle’s Minimal Essential Medium supplemented with 10% Fetal Bovine Serum (FBS), 2 mM glutamax, penicillin and streptomycin (growth medium) at 37°C in a 5% CO2 atmosphere. Growth medium was replaced every other day until the cells reached confluence (5–7 days). Cells were then transferred to 96 well E-plates for RTCA, or collagen/fibronectin/BSA coated glass coverslips for Ca^2+ imaging experiments.
16HBE14o- cells on E-plates in growth medium and in a 37°C, 5% CO2 incubator were monitored for the establishment for relative impedance overnight every 15 min using the xCELLigence™ Real Time Cell Analyzer (RTCA, Roche), [28], [30]. When cells reached baseline impedance the next day, and prior to the experiment, the RTCA was moved to room air and temperature where full growth medium was replaced with 100μL modified Hank’s Balanced Saline Solution (HBSS) pre-warmed to 37°C. The RTCA was then allowed to come to room temperature (45–60 min) prior to ligand addition. Each well was then supplemented with 100 µL HBSS containing appropriate ligands to measure concentration response ranges in quadruplicate. Additional wells were used for vehicle controls. Relative impedance in each well was monitored every 30 sec over 4 hr. Peak responses, defined as the maximal change in Normalized Cell Index, were used to define maximal response concentrations and physiological EC50s for each ligand.

[2] = tested on: mice; assay: In vivo mechanical sensitivity (von Frey) after hindpaw injection; parameters: species or system mouse; conditions: 15 pmoles into plantar hindpaw, 1 and 3 hr post-injection
Experimental: Male ICR mice (Harlan) or PAR2 ^-/- mice and their wild type littermates on a C57Bl/6 background weighing 25–30 grams were used for these studies. Animal protocols were approved by the Institutional Animal Care and Use Committee of The University of Arizona. Compounds were injected into the plantar surface of the hindpaw in a total volume of 25 µL using a 31-gauge needle. Compounds were diluted using sterile saline. Mechanical thresholds were determined using calibrated von Frey filaments (Stoelting Co, Wood Dale, IN) with the up-down method. The experimenter was always blinded to the treatment conditions and animals were randomized such that animals in a single experimental group were never all housed together.

[3] = target: T2, MrgprC11 (Mus musculus, UniProt Q8CIP3); assay: Ca2+ response in MrgprC11 transfected CHO cells; format: cell-based
T2 construct: An MrgprC11 cDNA in pcDNA3.1 vector was transfected into CHO cells; expressed in transfected cells; host or cells: CHO cells, transient transfection with Lipofectamine 2000
T2 sequence (Q8CIP3 1-322): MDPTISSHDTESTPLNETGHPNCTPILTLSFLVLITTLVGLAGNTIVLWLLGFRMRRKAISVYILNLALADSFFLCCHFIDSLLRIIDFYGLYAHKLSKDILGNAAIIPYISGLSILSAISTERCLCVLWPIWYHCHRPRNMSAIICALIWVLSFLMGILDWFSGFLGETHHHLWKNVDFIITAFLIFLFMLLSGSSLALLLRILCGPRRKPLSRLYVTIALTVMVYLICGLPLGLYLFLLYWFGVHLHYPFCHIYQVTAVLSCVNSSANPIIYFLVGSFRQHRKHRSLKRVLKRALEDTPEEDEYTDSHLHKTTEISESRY
Experimental: CHO cells were cultured in DMEM supplemented with 10% FBS and 1% penicillin and streptomycin at 37°C in a 5% CO2 atmosphere. One day before transfection, CHO cells were plated in a 60 mm cell culture dish at a concentration of 1×10^5 cells/cm^2 and grown without antibiotics. An MrgprC11 cDNA in pcDNA3.1 vector was transfected into CHO cells using Lipofectamine™ 2000 (Invitrogen) prior to transfer to coverslips for experiments. Coverslips were coated with 0.1 mg/ml poly-D-lysine (from 2 mg/ml stock) and incubated for 1 hr at room temperature, after which the coating solution was removed and the coverslips were washed twice with double distilled water. CHO cells were seeded on coverslips at a concentration of 1×10^5 cells/cm^2 6 hr after transfection. Transfected cells were incubated for 24 hr prior to Ca^2+ imaging.
16HBE14o- cells or CHO cells were loaded with fura 2-acetomethoxyl ester (CalBiochem or Molecular Probes) for 30 min at room temperature. Cells were washed with HBSS and allowed to sit for at least 20 min prior to digital imaging. For activation and desensitization assay experiments using 16HBE14o- cells, [Ca^2+]i was measured as previously described. Experiments consisted of 20 sec of recording of cells in HBSS to determine resting [Ca^2+]i, followed by a 10 sec wash to introduce ligand and up to 10 min of recording for ligand washes required for desensitization experiments. Briefly, fura-2 fluorescence was observed on an Olympus IX70 microscope with a 40X oil immersion objective after alternating excitation between 340 and 380 nm by a 75 W Xenon lamp linked to a Delta Ram V illuminator (PTI) and a gel optic line. Intracellular Ca^2+ concentration ([Ca^2+]i) for each individual cell in the field of view was calculated by ratiometric analysis of fura-2 fluorescence using equations originally published in [31]. Individual ratios were calculated every sec throughout the experiments. [Ca^2+]i traces over time are averaged [Ca^2+]i of all cells within a field of view (80–120) and are representative of at least 3 experiments. Cells were considered activated by the ligand if their resting [Ca^2+]i was increased above a 200 nM threshold, a 2–4 fold increase above typical resting values. Percent activation graphs are determined from 3–6 experiments for each ligand concentration. Time to threshold in individual cells represent between 200–400 cells from at least 3 experiments at each ligand concentration. Ca^2+ imaging of CHO cells was similar; each ligand concentration tested included at least 3 experiments and a minimum of 200 cells analyzed during each experiment.

Molecule `CC[C@H](C)[C@H](NC(=O)[C@H](CC1CCCCC1)NC(=O)c1csc(N)n1)C(N)=O` [Compound 9, 2at-Cha-I-NH2] has an EC50 [1] of 1100 nM.

`CCCCCCCCCCCCCCCCNC(=O)COCC(=O)NCCCOCCOCCOCCCNC(=O)COCC(=O)NCCCOCCOCCOCCCNC(=O)[C@@H](NC(=O)[C@H](CC1CCCCC1)NC(=O)c1csc(N)n1)[C@@H](C)CC` [Compound 13, 2at-Cha-I-PEG2-Hdc] gave an EC50 [1] of 86 nM.

Work on `CCCCCCCCCCCCCCCCNC(=O)COCC(=O)NCCCOCCOCCOCCCNC(=O)COCC(=O)NCCCOCCOCCOCCCNC(=O)COCC(=O)NCCCOCCOCCOCCCNC(=O)CNC(=O)[C@@H](NC(=O)[C@H](CC(C)C)NC(=O)c1csc(N)n1)[C@@H](C)CC` [Compound 3, 2at-LIG-PEG3-Hdc] yielded an EC50 [1] of 46 nM.

Work on `CCCCCCCCCCCCCCCCNC(=O)COCC(=O)NCCCOCCOCCOCCCNC(=O)COCC(=O)NCCCOCCOCCOCCCNC(=O)[C@H](CCCNC(=N)N)NC(=O)CNC(=O)[C@@H](NC(=O)[C@H](CC1CCCCC1)NC(=O)c1csc(N)n1)[C@@H](C)CC` [Compound 11, 2at-Cha-IGR-PEG2-Hdc] yielded an EC50 [1] of 16 nM.

For `CCCCCCCCCCCCCCCCNC(=O)COCC(=O)NCCCOCCOCCOCCCNC(=O)COCC(=O)NCCCOCCOCCOCCCNC(=O)COCC(=O)NCCCOCCOCCOCCCNC(=O)C(CC(C)C)NC(=O)c1csc(N)n1` [Compound 5, 2at-L-PEG3-Hdc], the “mechanical hypersensitivity (von Frey)” value [2] was “inactive”, the “mechanical hypersensitivity (von Frey)” value ([2]; listed as 2at-L-PEG 3-Hdc) was “lacked efficacy” and the “RTCA response / agonism (peak Normalized Cell Index)” value [1] was “eliminated ligand activity”. The “RTCA response / agonism (peak Normalized Cell Index)” value ([1]; listed as 2at-L-PEG 3-Hdc) was “eliminated in vitro activity”.

In the case of `CCCCCCCCCCCCCCCCNC(=O)COCC(=O)NCCCOCCOCCOCCCNC(=O)COCC(=O)NCCCOCCOCCOCCCNC(=O)COCC(=O)NCCCOCCOCCOCCCNC(=O)[C@@H](NC(=O)[C@H](CC(C)C)NC(=O)c1csc(N)n1)[C@@H](C)CC` [Compound 4, 2at-LI-PEG3-Hdc], the EC50 [1] is reported as 310 nM.

In the case of `CCCCCCCCCCCCCCCCNC(=O)COCC(=O)NCCCOCCOCCOCCCNC(=O)COCC(=O)NCCCOCCOCCOCCCNC(=O)COCC(=O)NCCCOCCOCCOCCCNC(=O)[C@H](CC(C)C)NC(=O)[C@H](CCCNC(=N)N)NC(=O)CNC(=O)[C@@H](NC(=O)[C@H](CC(C)C)NC(=O)c1csc(N)n1)[C@@H](C)CC` [Compound 1, 2at-LIGRL-PEG3-Hdc], the EC50 [1] is reported as 1.7 nM, the “Ca2+ response (% of cells)” value ([3]; 1 nM) is reported as 0% and the “Ca2+ response (% of cells)” value ([3]; 10 nM) is reported as 2.5%. The “Ca2+ response (% of cells)” value ([3]; 100 nM) was 10%, the “Ca2+ response (% of cells)” value ([3]; 1 µM) was 20% and the “Ca2+ response (% of cells)” value ([3]; 10 µM) was 88 ± 19%.

`CCCCCCCCCCCCCCCCNC(=O)COCC(=O)NCCCOCCOCCOCCCNC(=O)COCC(=O)NCCCOCCOCCOCCCNC(=O)COCC(=O)NCCCOCCOCCOCCCNC(=O)c1csc(N)n1` [Compound 6, 2at-PEG3-Hdc] was tested, and the “RTCA response / agonism (peak Normalized Cell Index)” value [1] was “eliminated ligand activity” and the “RTCA response / agonism (peak Normalized Cell Index)” value ([1]; listed as 2at-PEG 3-Hdc) was “eliminated in vitro activity”.

Molecule `CCCCCCCCCCCCCCCCNC(=O)COCC(=O)NCCCOCCOCCOCCCNC(=O)COCC(=O)NCCCOCCOCCOCCCNC(=O)[C@H](CCCNC(=N)N)NC(=O)CNC(=O)[C@@H](NC(=O)[C@H](CC1CCCCC1)NC(=O)c1ccno1)[C@@H](C)CC` [Compound 12, 5io-Cha-IGR-PEG2-Hdc] has an EC50 [1] of 6.8 nM.

`CCCCCCCCCCCCCCCCNC(=O)COCC(=O)NCCCOCCOCCOCCCNC(=O)COCC(=O)NCCCOCCOCCOCCCNC(=O)[C@@H](NC(=O)[C@H](CC1CCCCC1)NC(=O)c1ccno1)[C@@H](C)CC` [Compound 14, 5io-Cha-I-PEG2-Hdc] gave an EC50 [1] of 43 nM.

For `CCCCCCCCCCCCCCCCNC(=O)COCC(=O)NCCCOCCOCCOCCCNC(=O)COCC(=O)NCCCOCCOCCOCCCNC(=O)COCC(=O)NCCCOCCOCCOCCCNC(=O)[C@H](CCCNC(=N)N)NC(=O)CNC(=O)[C@@H](NC(=O)[C@H](CC(C)C)NC(=O)c1csc(N)n1)[C@@H](C)CC` [Compound 2, 2at-LIGR-PEG3-Hdc], the EC50 [1] was 2.1 nM and the “Ca2+ response (% of cells)” value ([3]; 100 nM) was 0.5%.

With `CC[C@H](C)[C@H](NC(=O)[C@H](CC1CCCCC1)NC(=O)c1csc(N)n1)C(=O)NCC(=O)N[C@@H](CCCNC(=N)N)C(N)=O` [Compound 7, 2at-Cha-IGR-NH2] ({4Thiazolecarbonyl(2-NH2)}-[Cha]IGR-NH2) the EC50 [1] was 490 nM.
